In ChEMBL document CHEMBL4000202, “Identification of a diverse synthetic abietane diterpenoid library for anticancer activity” (Bioorg Med Chem Lett, 2017):

How the values were obtained:
Format in all cases: functional, cell-based
[1] = test system: SK-OV-3; assay: Cytotoxic activity against human SKOV3 cells assessed as reduction in cell viability after 72 hrs by SRB assay; settings: SK-OV-3, 72 h
[2] = test system: A549; assay: Cytotoxic activity against human A549 cells assessed as reduction in cell viability after 72 hrs by SRB assay; settings: A549, 72 h
[3] = test system: PC-3; assay: Cytotoxic activity against human PC3 cells assessed as reduction in cell viability after 72 hrs by SRB assay; settings: PC-3, 72 h

Compound | IC50 [1] [µM] | IC50 [2] [µM] | IC50 [3] [µM]
C=C1[C@@H]2CC(=O)c3c(ccc(C(C)C)c3OC)[C@@]2(C)CC[C@@]1(O)CO | 59.6 | 25 | 27.2
C=C1[C@H](O)CC[C@]2(C)c3ccc(C(C)C)c(OC)c3CC[C@@H]12 | > 100 | 99.6 | > 100
C=C1CCC[C@]2(C)c3ccc(C(C)C)c(OC)c3CC[C@@H]12 | > 100 | 99.1 | > 100
C=C1C(=O)CC[C@]2(C)c3ccc(C(C)C)c(OC)c3CC[C@@H]12 | 7.49 | 9.31 | 7.28
COc1c(C(C)C)ccc2c1CC[C@H]1[C@@H]3COC(=O)[C@@H]3CC[C@]21C | > 100 | > 100 | > 100
C=CCc1cc(C(C)C)c(O)c2c1[C@@]1(C)CCC3=C(COC3=O)[C@@H]1CC2=O | 87.1 | 97.5 | 95.1
COc1c(C(C)C)ccc2c1CC[C@H]1C(=O)CCC[C@]21C | > 100 | > 100 | > 100
COC(=O)[C@]1(C)CCC[C@]2(C)c3ccc(C(C)C)c(O)c3CC[C@@H]12 | 42.9 | 56 | 22.3
COC(=O)[C@]1(C)CCC[C@]2(C)c3ccc(C(C)C)c([N+](=O)[O-])c3CC[C@@H]12 | > 100 | > 100 | > 100
C=CCc1ccc2c(c1O)C(=O)C[C@H]1C3=C(CC[C@]21C)C(=O)OC3 | 39.4 | 95.8 | 68
COC(=O)[C@]1(C)CCC[C@]2(C)c3ccc(C(C)C)cc3CC[C@@H]12 [METHYL DEHYDROABIETATE] | 51.3 | 41.2 | 37.7
CC(C)[C@]12O[C@H]1[C@@H]1O[C@]13[C@]1(O[C@H]1C[C@H]1C4=C(CC[C@@]13C)C(=O)OC4)[C@@H]2O [TRIPTOLIDE] | 0.0072 | 0.0175 | 0.0183
COc1cccc2c1CC[C@H]1C3=C(CC[C@]21C)C(=O)OC3 | > 100 | > 100 | > 100
COc1c(C(C)C)ccc2c1CC[C@H]1c3cocc3CC[C@]21C | 21.3 | 27.4 | 19.3
CC(C)c1ccc2c(c1O)C(=O)C[C@H]1C3=C(CC[C@]21CO)C(=O)OC3 | 95.4 | > 100 | 92.2
C=C1C(=O)CC[C@]2(C)c3cccc(OC)c3CC[C@@H]12 | 3.31 | 5.47 | 5.01
C=CCOc1c(C(C)C)ccc2c1C(=O)C[C@H]1C3=C(CC[C@]21C)C(=O)OC3 | 82.4 | > 100 | 98.3
CC(C)c1ccc2c(c1)CC[C@H]1[C@](C)(C(=O)O)CCC[C@]21C [DEHYDROABIETIC ACID] | 66 | 74.3 | 51.3
COC(=O)[C@]1(C)CCC[C@]2(C)c3ccc(C(C)C)c(N)c3CC[C@@H]12 | 37.8 | 35.7 | 21.1
C=C1[C@H](O[Si](C)(C)C(C)(C)C)CC[C@]2(C)c3ccccc3CC[C@@H]12 | 91.8 | 97.9 | > 100
COc1c(C(C)C)ccc2c1CC[C@H]1C3=C(CC[C@]21CO)C(=O)OC3 | > 100 | > 100 | > 100
COC(=O)[C@]1(C)CCC[C@@]2(C)[C@H]1CC=C1C(=O)[C@@](O)(C(C)C)CC[C@@H]12 | 99.2 | 85.1 | > 100
COC(=O)[C@]1(C)CCC[C@]2(C)c3ccc(C(C)C)c(OC)c3C(=O)C[C@@H]12 | > 100 | > 100 | 99.4
O=c1[nH]cc(F)c(=O)[nH]1 [FLUOROURACIL] | 23.1 | 32.1 | 15.3
COc1c(C(C)C)ccc2c1CC[C@@]1(O)C3=C(CC[C@]21C)C(=O)OC3 | > 100 | > 100 | > 100
COc1c(C(C)C)ccc2c1CC[C@H]1[C@@H](CO)[C@H](O)CC[C@]21C | > 100 | > 100 | > 100
COc1c(C(C)C)ccc2c1CC[C@H]1[C@@H](O)CCC[C@]21C | > 100 | > 100 | 98.2
COc1ccc(COC[C@H]2[C@H](O)CC[C@]3(C)c4cccc(OC)c4CC[C@@H]23)cc1 | 6.19 | 5.39 | 3.37
